Consider nine molecules from patent US6489292B1, “Stable aqueous insulin preparations without phenol and cresol” (Novo Nordisk A/S, priority 1998, dated 2002).

Series [1] has as its target T1, human insulin (Homo sapiens, UniProt P01308).
T1 construct: Insulin derivatives having truncations in the C-terminal of the B-chain; deamidations at A18, A21 and B3
In words: Chemical stability at 37° C.: covalent insulin polymer by size exclusion chromatography. The note with it: stabiliser equimolar to insulin, 0.5 Zn2+/insulin, NaCl 15 mM, glycylglycine 7 mM, tween 20 0.01%, pH 7.5. The class given is physicochemical. The method, then:
(§1) 27.5 ml of a 21 mM insulin stock solution was made by dissolving 3.707 g zinc free human insulin in 14 ml water and adding 2888 μl of 0.1 M ZnCl2 and 7 ml water before adjusting pH to 7.5 by 0.2 M NaOH and finally adding water to 27.5 ml, calculating the specific volume of insulin as 0.7 μl/mg. The stock solution was filtrated. A preparation of 3.5 ml 15 mM insulin was then made by adding 23 μl 2.3 M stabiliser in ethanol, 49 μl 0.5 M glycylglycine and 35 μl 1% Tween 20 and water to 3.5 ml. The solution was thereafter diluted with medium containing sodium chloride 15 mM, glycylglycine 7 mM, Tween 20 0.01%, pH 7.5 to 12, 9, 6, 3 and 0.6 mM insulin and stored at 5° C. for visual inspection. The reference solution was made by the same way but without adding a stabiliser. The chemical stability of the insulin solutions were followed at 37° C. for two concentrations, 3 and 15 mM, by determination of covalent insulin polymer by size exclusion chromatography. […] Detection was performed with a tunable absorbance detector (Waters 486) at 276 nm. Injection volume were […] for 3 and 15 mM insulin solutions, respectively.
(§2) 3.26 g human insulin (0.4 equivalent Zn^2+ per insulin) was dispersed in water in 18 ml water on icebath and added 490 μl 0.5 M glycylglycine and 1628 μl sodium hydroxide (3.1 equivalent) and stirred slowly overnight at 5° C. 613 μl 0.1 M zinc chloride (0.1 equivalent of zinc) was then added the solution, pH adjusted to 7.5 by 410 μl 1 M hydrochloric acid (0.8 equivalent of chloride) and the volume adjusted to 25 ml by water. Finally the stock solution of 21 mM insulin was filtrated. 3.57 ml of the stock solution was added 50 μl 1% tween 20, 750 μl 0.1 M stabiliser and 630 μl water to obtain 5 ml 15 mM insulin formulation. Finally the preparation was diluted with medium containing sodium chloride, glycylglycine and detergent to obtain 12, 9, 6, and 3 mM of human insulin and stored at 5° C. for visual inspection. The chemical stability of 3 and 15 mM insulin solutions were followed at 37° C. by determination of covalent insulin polymer by size exclusion chromatography.

The target of series [2] is T1, human insulin. The series can be described thus: Physical stability of insulin solution at 5° C. by visual inspection for precipitation. The class given is physicochemical. The note with it: 0.5 Zn2+/insulin, NaCl 15 mM, glycylglycine 7 mM, tween 20 0.01%, pH 7.5. The method, then: as §1, §2
Setting [3] is: example 1, stabiliser equimolar to insulin.
Setting [4] is: example 2, stabiliser equimolar to insulin.

T1 sequence (P01308 25-54 limits assumed): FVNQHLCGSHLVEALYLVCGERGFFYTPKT
T1 sequence (P01308 90-110 limits assumed): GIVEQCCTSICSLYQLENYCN

Consider `CC1(C)C2CCC1(C)C(O)C2` (single isomer, unassigned; (-)) [(−)-borneol], for which the “Chemical stability at 37° C. (% polymer/week), insulin solution of 3 mM” value at human insulin [1] (example 1, 3 mM insulin) worked out at 0.43 % polymer/week. For the same molecule, at human insulin [1] (example 1, 15 mM insulin), the “Chemical stability at 37° C. (% polymer/week), insulin solution of 15 mM” value is recorded as 0.47 % polymer/week. The “Physical stability of solution at 4 weeks and 5° C.: maximal insulin concentration at which the solution was without precipitation up to 15 mM (3, 6, 9, 12, 15 mM)” value at human insulin [2] (setting [3]) was 9 mM.
On to `CC1(C)[C@H]2CC[C@H](CO)[C@@H]1C2` (relative stereo) [(−)-trans-myrtanol], for which the “Physical stability of solution at 4 weeks and 5° C.: maximal insulin concentration at which the solution was without precipitation up to 15 mM (3, 6, 9, 12, 15 mM)” value on human insulin [2] (setting [3]) is 15 mM.
On the same count and under the same terms, the value for `CC1C(O)CC2CC1C2(C)C` (single isomer, unassigned; (-)) [(−)-isopinocampheol] was 15 mM.
On to `Oc1ccccc1` [phenol], for which the “Chemical stability at 37° C. (% polymer/week), insulin solution of 3 mM” value was found to be 0.37 % polymer/week on human insulin [1] (example 1, 3 mM insulin) and 0.32 % polymer/week at human insulin [1] (example 2, 3 mM insulin). Besides, the “Chemical stability at 37° C. (% polymer/week), insulin solution of 15 mM” value on human insulin [1] (example 1, 15 mM insulin) is 0.39 % polymer/week; on human insulin [1] (example 2, 15 mM insulin) it was 0.29 % polymer/week. Besides, the “Physical stability of solution at 4 weeks and 5° C.: maximal insulin concentration at which the solution was without precipitation up to 15 mM (3, 6, 9, 12, 15 mM)” value on human insulin [2] (setting [3]) and at human insulin [2] (setting [4]) was 15 mM in each case.
As to `C[C@@H]1[C@@H](O)C[C@H]2C[C@@H]1C2(C)C` [(+)-isopinocampheol], at human insulin [2] (setting [3]), the “Physical stability of solution at 4 weeks and 5° C.: maximal insulin concentration at which the solution was without precipitation up to 15 mM (3, 6, 9, 12, 15 mM)” value was found to be 12 mM.
On to `c1ncc2[nH]cnc2n1` [purine], for which, on human insulin [1] (example 2, 3 mM insulin), the “Chemical stability at 37° C. (% polymer/week), insulin solution of 3 mM” value was found to be 0.58 % polymer/week. For the same molecule, the “Chemical stability at 37° C. (% polymer/week), insulin solution of 15 mM” value on human insulin [1] (example 2, 15 mM insulin) is given as 0.71 % polymer/week. Moreover, the “Physical stability of solution at 4 weeks and 5° C.: maximal insulin concentration at which the solution was without precipitation up to 15 mM (3, 6, 9, 12, 15 mM)” value on human insulin [2] (setting [4]) is given as 15 mM.
Regarding `CC1(C)C2CCC1(C)C(O)C2` (single isomer, unassigned; (+)) [(+)-borneol], the “Chemical stability at 37° C. (% polymer/week), insulin solution of 3 mM” value on human insulin [1] (example 1, 3 mM insulin) turned out to be 0.47 % polymer/week. Moreover, on human insulin [1] (example 1, 15 mM insulin), the “Chemical stability at 37° C. (% polymer/week), insulin solution of 15 mM” value came out at 0.61 % polymer/week. In addition, the “Physical stability of solution at 4 weeks and 5° C.: maximal insulin concentration at which the solution was without precipitation up to 15 mM (3, 6, 9, 12, 15 mM)” value on human insulin [2] (setting [3]) was 9 mM.
Regarding `Nc1ncnc2nc[nH]c12` [adenine], the “Chemical stability at 37° C. (% polymer/week), insulin solution of 3 mM” value on human insulin [1] (example 2, 3 mM insulin) is 0.59 % polymer/week. Moreover, on human insulin [1] (example 2, 15 mM insulin), the “Chemical stability at 37° C. (% polymer/week), insulin solution of 15 mM” value is reported as 0.77 % polymer/week. Besides, the “Physical stability of solution at 4 weeks and 5° C.: maximal insulin concentration at which the solution was without precipitation up to 15 mM (3, 6, 9, 12, 15 mM)” value on human insulin [2] (setting [4]) is listed as 9 mM.
Take `CC1(C)[C@H]2CC[C@](C)(C2)[C@H]1O` [(+)-fenchol]: on human insulin [1] (example 1, 3 mM insulin), the “Chemical stability at 37° C. (% polymer/week), insulin solution of 3 mM” value was 0.50 % polymer/week. At human insulin [1] (example 1, 15 mM insulin), the “Chemical stability at 37° C. (% polymer/week), insulin solution of 15 mM” value was 0.97 % polymer/week. Moreover, the “Physical stability of solution at 4 weeks and 5° C.: maximal insulin concentration at which the solution was without precipitation up to 15 mM (3, 6, 9, 12, 15 mM)” value on human insulin [2] (setting [3]) is listed as 15 mM.
